Patent US20240279232A1, “USE OF SUBSTITUTED 5-(4-METHYL-6-PHENYL-4H-BENZO[F]IMIDAZO[1,5-A][1,4] DIAZEPIN-3-YL)-1,2,4-O[…] THE TREATMENT OF INFLAMMATORY CONDITIONS” (priority 2021, published 2024)
Where two headings read alike, the source gives them in different places.

Assays:
[1] = biological target: T1, KOR (κ opioid receptor) (Homo sapiens, UniProt P41145); assay: KOR radioligand binding ([3H]-U69593, HEK293 cell homogenates)
T1 construct: expressed in transfected cells; host or cells: HEK293 (stably transfected)
Method: (§1) Radioligand binding assays. Detailed protocols for the primary and secondary radioligand binding assays can be found in the National Institute of Mental Health's Psychoactive Drug Screening Program (NIMH PDSP) Assay Protocol Book (Roth, 2018). Briefly, primary and secondary radioligand binding assays are carried out in a final of volume of 125 μL per well in appropriate binding buffer. […] Total binding and nonspecific binding are determined in the absence and presence of 10 μM of appropriate reference compound (Naltrindole DOR, Salvinorin A KOR and DAMGO MOR). In brief, plates are usually incubated at room temperature and in the dark for 90 min. Reactions are stopped by vacuum filtration onto 0.3% polyethyleneimine (PEI) soaked 96-well filter mats using a 96-well Filtermate harvester, followed by three washes with cold PBS buffer. Scintillation cocktail is then melted onto the microwave-dried filters on a hot plate and radioactivity counted in a Microbeta counter. The data (n=6) were analyzed by nonlinear regression.
(§2) Ligand affinities were determined for KOR (κ opioid receptor), DOR (δ opioid receptor), and MOR (μ opioid receptor) using radioligand binding assays at a screening concentration of 10,000 nM. For these assays, cell homogenates from HEK293 cells that overexpressed KOR, MOR, and DOR were used in combination with [^3H]-U69593, [^3H]-DAMGO, and [^3H]-DADLE, respectively Compounds that exceeded more than 50% radioligand displacement were investigated further in concentration-dependent experiments to determine Ki values. Gamma aminobutyric acid type A receptor (GABAAR) binding was determined with rat brain homogenate and ^3H-flunitrazepam. Flunitrazepam binds GABAAR subtypes that consists of two α and two β subunits and one γ or δ subunit. Strong affinities to α1-3,5,6β1-3γ1-y/δ GABAARS have been reported for flunitrazepam. The […] GABAAR subtype expression in the brain includes 43% α1β2γ2, 15% α2β3γ2+8% α2βγ1, 10% α3β3γ2, 6% α4βγ/δ, 4% α5β3γ2, and 4% α6β2γ2/δ. Therefore, compounds with high affinity toward the synaptic benzodiazepine-sensitive receptors (BZR) predominately bind α1-3β2-3γ1-2 GABAARs. Alternatively, compounds with weak BZR binding might be selective for α4-6βγ/δ GABAARs.
(§3) Psychoactive Drug Screening Program. Detailed protocols for the primary and secondary radioligand binding assays can be found in the National Institute of Mental Health's Psychoactive Drug Screening Program (NIMH PDSP) Assay Protocol Book. Briefly, primary and secondary radioligand binding assays are carried out in a final of volume of 125 μL per well in appropriate binding buffer. The radioactive ligand concentration is close to the Kd. Total binding and nonspecific binding are determined in the absence and presence of 10 μM of appropriate reference compound, respectively. In brief, plates are usually incubated at room temperature and in the dark for 90 min. Reactions are stopped by vacuum filtration onto 0.3% polyethyleneimine (PEI) soaked 96-well filter mats using a 96-well Filtermate harvester, followed by three washes with cold PBS buffer. Scintillation cocktail is then melted onto the microwave-dried filters on a hot plate and radioactivity counted in a Microbeta counter. The data (n=6) were analyzed by nonlinear regression.

[2] = biological target: T2, MOR (μ opioid receptor) (Homo sapiens, UniProt P35372); assay: MOR radioligand binding ([3H]-DAMGO, HEK293 cell homogenates); details: Percent inhibition at 10,000 nM; [3H]-DAMGO
T2 construct: expressed in transfected cells; host or cells: HEK293
Method: as §1, §2, §3

[3] = biological target: T3, DOR (δ opioid receptor) (Homo sapiens, UniProt P41143); assay: DOR radioligand binding ([3H]-DADLE, HEK293 cell homogenates); details: Percent inhibition at 10,000 nM; [3H]-DADLE
T3 construct: expressed in transfected cells; host or cells: HEK293
Method: as §1, §2, §3

[4] = tested on: BZR (benzodiazepine site of GABAAR); assay: GABAAR/BZR binding, rat brain homogenate with 3H-flunitrazepam; details: rat brain homogenate, 3H-flunitrazepam; for BZR %: Percent inhibition at 10,000 nM
Method: as §2, §3

[5] = tested on: RAW macrophages; assay: NO production (Griess assay), LPS/IFNγ-activated RAW264.7 macrophages; type: cell-based, mouse; details: Mus musculus, Macrophage, 24 h
[6] = tested on: Mouse microglia; assay: NO production (Griess assay), LPS/IFNγ-activated mouse microglia; type: cell-based; details: for Inhibition of NO production (%) Mouse microglia 50 μM: 24 hours, 1 μM GABA, LPS/IFNγ
Method: (§4) Next, a library of GABAAR ligands was investigated to identify compounds that reduce the production of NO as a marker of anti-inflammatory activity. […] NO was quantified with a Greiss assay. Cell viability was determined with CellTiter-Glo.
Cell culture. A) HMC3 Microglia (CRL-3304) were maintained in treated cell culture flasks (Nunc, 156472) with EMEM (Corning, 10010CV) supplemented with 10% heat-inactivated FBS (Corning, 35011CV) and 100 U/mL penicillin and 100 μg/mL streptomycin (Hyclone, SV30010). Cultures were maintained at 37° C. and 5% CO2. When cells reached a density of 7×10^4 cells/mL, cultures were passaged with 0.25% Trypsin (Corning, 25-053-CI) and resuspended to a density no lower than 10,000 cells/mL. B) Human and mouse microglia cell lines were a gift from Dr. David Alvarez-Carbonell at Case Western Reserve University (Cleveland, OH). Microglia were cultured in cell culture treated flasks (Nunc, 156472) with DME/F12 media (Hyclone, SH30023.01) supplemented with 10% heat-inactivated FBS (Corning, 35011CV), 100 U/mL penicillin/100 μg/mL streptomycin (Hyclone, SV30010), and Normocin (Invivogen, ant-nr). Cultures were maintained at 37° C. and 5% CO2. […] Cultures were maintained at 37° C. and 5% CO2. Cells were passaged when they reached a density of approximately 3×10^6 cells/mL using cell scrapers (VWR, 10062-906) to lift cells from flask surface and resuspended at densities of approximately 500,000 cells/mL.
(§5) Nitric oxide production (Griess assay) and viability assay (CellTiter-Glo). 80 μL of mouse microglia culture (1×10^6 cells/mL) was plated into sterile 384 well plates representing non-activated wells. The remaining culture was activated with 50 ng/ml LPS (Invivogen, NC9836) and 150 U/mL IFNγ (R&D Systems, 485MI100) and distributed into the 384 well plates. […] Assay plates were incubated for approximately 24 hours (unless otherwise noted) at 37° C., centrifuged, and 40 μL of supernatant transferred to a new plate for analysis using the Griess Assay (Promega, Madison, WI). Absorbance at 530 nm was measured using a TECAN Infinite M1000 plate reader. The remaining 40 μL containing cells was analyzed for toxicity by the CellTiter-Glo Assay (Promega, Madison, WI). Luminescence was read using a TECAN Infinite M1000 plate reader.

[7] = tested on: Mouse microglia; assay: Cell viability (CellTiter-Glo), mouse microglia; type: cell-based; details: 50 μM, CellTiter-Glo
Method: as §4, §5

[8] = tested on: HEK293; assay: Viability assay (CellTiter-Glo), HEK293; type: cell-based, human; details: 120 μM, CellTiter-Glo
Method: (§6) The screen identified several compounds that reduced NO in activated microglia and macrophages. The tested compounds included achiral and chiral imidazodiazepines and benzodiazepines. In general, microglia were more sensitive to compound treatment with more pronounced reduction of NO than macrophages. […] Cell viability assays with HEK293 (kidney) and HepG2 (liver) cells were conducted in a concentration dependent manner. A limited number of compounds, such as GL-III-63, GL-III-76A, and GL-III-77, were toxic at 120 μM.
(§7) Viability assay. Human liver hepatocellular carcinoma (HEPG2) and human embryonic kidney 293T (HEK293T) cell lines were purchased (ATCC) and cultured in 75 cm^2 flasks (CellStar). Cells were grown in DMEM/High Glucose (Hyclone, #SH3024301) media to which non-essential amino acids (Hyclone, #SH30238.01), 10 mM HEPES (Hyclone, #SH302237.01), 5×10^6 units of penicillin and streptomycin (Hyclone, #SV30010), and 10% of heat inactivated fetal bovine serum (Gibco, #10082147) were added. Cells were harvested using 0.05% Trypsin (Hyclone, #SH3023601), washed with PBS, and dispensed into sterile white, optical bottom 384-well plates (NUNC, #142762). After three hours, small molecule DMSO solutions were transferred with a Tecan Freedom EVO liquid handling system equipped with a 100 nL pin tool (V&P Scientific). The controls were 3-dibutylamino-1-(4-hexyl-phenyl)-propan-1-one (25 mM in DMSO, positive control) and DMSO (negative control). The cells were incubated for 48 hours followed by the addition of CellTiter-Glo™, a luminescence-based cell viability assay (Promega, Madison, WI). All luminescence readings were performed on a Tecan Infinite M1000 plate reader. The assay was carried out in quadruplet with two independent runs. The data were analyzed by nonlinear regression.

[9] = tested on: HEPG2; assay: Viability assay (CellTiter-Glo), HEPG2; type: cell-based, human; details: 120 μM, CellTiter-Glo
Method: as §6, §7

[10] = Percent inhibition at 10,000 nM, [3H]-U69593

T3 sequence (P41143 whole entry): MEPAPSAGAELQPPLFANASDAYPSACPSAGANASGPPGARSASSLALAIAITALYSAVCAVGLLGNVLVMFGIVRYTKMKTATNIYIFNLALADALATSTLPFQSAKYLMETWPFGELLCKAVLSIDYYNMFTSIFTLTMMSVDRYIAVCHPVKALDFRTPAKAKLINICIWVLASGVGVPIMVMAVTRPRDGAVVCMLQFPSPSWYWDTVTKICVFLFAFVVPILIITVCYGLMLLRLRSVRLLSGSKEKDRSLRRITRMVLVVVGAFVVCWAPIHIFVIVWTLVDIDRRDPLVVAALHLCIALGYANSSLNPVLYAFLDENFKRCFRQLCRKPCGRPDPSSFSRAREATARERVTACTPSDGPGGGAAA
T2 sequence (P35372 whole entry, species assumed): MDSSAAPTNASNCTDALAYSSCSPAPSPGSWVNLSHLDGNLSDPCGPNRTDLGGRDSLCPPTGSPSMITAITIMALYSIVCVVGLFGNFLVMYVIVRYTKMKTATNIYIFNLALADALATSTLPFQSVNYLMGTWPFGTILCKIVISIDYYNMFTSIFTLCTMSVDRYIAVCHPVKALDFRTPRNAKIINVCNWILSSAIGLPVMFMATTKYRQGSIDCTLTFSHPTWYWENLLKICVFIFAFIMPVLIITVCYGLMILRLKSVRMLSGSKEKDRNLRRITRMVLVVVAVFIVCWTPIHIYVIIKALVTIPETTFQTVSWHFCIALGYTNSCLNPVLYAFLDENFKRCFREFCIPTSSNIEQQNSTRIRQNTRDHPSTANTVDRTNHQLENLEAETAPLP
T1 sequence (P41145 whole entry): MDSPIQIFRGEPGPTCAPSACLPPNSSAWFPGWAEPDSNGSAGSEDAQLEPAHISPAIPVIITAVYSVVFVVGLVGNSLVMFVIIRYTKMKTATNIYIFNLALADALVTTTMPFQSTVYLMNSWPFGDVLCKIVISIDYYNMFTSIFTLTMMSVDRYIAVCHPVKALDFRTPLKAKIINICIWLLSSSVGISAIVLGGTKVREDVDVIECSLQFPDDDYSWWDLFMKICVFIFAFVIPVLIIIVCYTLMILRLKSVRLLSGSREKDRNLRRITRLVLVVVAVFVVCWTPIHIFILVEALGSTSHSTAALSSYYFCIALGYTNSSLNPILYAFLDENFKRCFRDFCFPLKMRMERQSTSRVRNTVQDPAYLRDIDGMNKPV

SMILES | inhibition at 10 µM [1, 10] [%] | inhibition at 10 µM [2] [%] | inhibition at 10 µM [3] [%] | BZR % [4] [%] | Ki [4] [nM] | inhibition at 10 µM [5] [%] | inhibition at 10 µM ([6]; Mus musculus, Microglia, 24 h) [%] | Cell viability (%) Mouse microglia 50 μM [7] [%] | Cell viability (%) HEK293 120 μM [8] [%] | Cell viability (%) HEPG2 120 μM [9] [%] | inhibition at 50 µM ([6]; Mus musculus, Microglia, 24 h) [%] | KOR % [1, 10] [%] | MOR % [2] [%] | DOR % [3] [%] | Inhibition of NO production (%) Mouse microglia 50 μM [6] [%] | Ki ([1]; concentration-dependent, [3H]-U69593, read-out: KOR (Ki)) [nM] | Ki [1] [nM]
C#Cc1ccc2c(c1)C(c1ccccn1)=N[C@H](C)c1c(C(=O)OCC)ncn1-2 [GL-II-19] | 44 | 17 | 2 | 71 | 1140 | 2 ± 2 | 32 ± 4 | 100 ± 11 | 90 ± 5 | 100 ± 9 |  |  |  |  |  |  | 
C#Cc1ccc2c(c1)C(c1ccccn1)=NCc1c(-c3nc(CC)no3)ncn1-2 [MP-III-080] | 47 | 0 | 0 | 88 | 303 |  |  | 100 ± 14 |  |  | 0 |  |  |  |  |  | 
C#Cc1ccc2c(c1)C(c1ccccn1)=NCc1c(-c3cnco3)ncn1-2 [KRM-II-81] |  |  |  | 86 | 294 |  |  | 100 ± 5 | 96 ± 11 | 100 ± 12 |  | 46 | 7 | 15 | 0 ± 1 |  | 
C#Cc1ccc2c(c1)C(c1ccccc1F)=NCc1c(-c3cnco3)ncn1-2 [KRM-II-18B] | 89 | 11 | 20 | 97 | 38 |  |  | 100 ± 3 |  |  | 0 |  |  |  |  | 361 | 
Cc1noc(-c2ncn3c2[C@@H](C)N=C(c2ccccn2)c2cc(C4CC4)ccc2-3)n1 [GL-III-64] | 60 | 7 | 14 | 92 | 1490 |  |  | 96 ± 10 | 75 ± 8 | 75 ± 10 | 26 ± 10 |  |  |  |  |  | 2050
C#Cc1ccc2c(c1)C(c1ccccc1)=NCc1c(C(=O)NC)ncn1-2 [YT-III-31] |  |  |  |  |  |  |  | 100 ± 8 | 96 ± 10 | 100 ± 7 |  |  |  |  | 0 ± 2 |  | 
